Read-outs that look alike come from different tables or passages of the source.
Key:
Mtb Rv3802 [1] = molecular target: T1, Mtb Rv3802 (Mycobacterium tuberculosis, UniProt O53581); assay: biochemical; format: biochemical
Mtb Rv3802 [2] = molecular target: T1, Mtb Rv3802; format: biochemical; conditions: 100 μM inhibitor, no preincubation time
Mtb Pks13-TE [3] = molecular target: T2, Mtb Pks13-TE (Mycobacterium tuberculosis, UniProt I6X8D2); assay: Initial inhibition screen, Pks13-TE activity assay; format: biochemical
Mtb Ag85C [4] = molecular target: T3, Mtb Ag85C (Mycobacterium tuberculosis, UniProt P9WQN9); assay: Initial inhibition screen, Ag85C activity assay; format: biochemical; conditions: for inhibition level of Ag85C: 100 μM inhibitor, 0 min preincubation, compared to the uninhibited control
Mtb Ag85C [5] = molecular target: T3, Mtb Ag85C; assay: Ag85C kinact/KI determination; format: biochemical
Mtb strain H37Rv = conditions: cited from earlier work
Rv3802 = conditions: THL to Rv3802, cited from earlier work
Mtb Pks13-TE [6] = molecular target: T2, Mtb Pks13-TE; assay: Pks13-TE reversible covalent inhibition and influence of trehalose; format: biochemical
[7] = system: OC[C@H]1O[C@H](O[C@H]2O[C@H](CO)[C@@H](O)[C@H](O)[C@H]2O)[C@H](O)[C@@H](O)[C@@H]1O; assay: purified protein, by the assay type; conditions: other: Pks13-TE, acyl transfer from 4MH to trehalose; pH 7.5; 37.0 °C
[8] = 20 nM Rv3802, linear rates from 2 to 6 min, no preincubation
[9] = read-out: increase in inhibition level of Pks13-TE from 0 to 3 h
[10] = read-out: inhibition level of Pks13-TE at 4 h (decreased to)

T3 sequence (P9WQN9 46-340): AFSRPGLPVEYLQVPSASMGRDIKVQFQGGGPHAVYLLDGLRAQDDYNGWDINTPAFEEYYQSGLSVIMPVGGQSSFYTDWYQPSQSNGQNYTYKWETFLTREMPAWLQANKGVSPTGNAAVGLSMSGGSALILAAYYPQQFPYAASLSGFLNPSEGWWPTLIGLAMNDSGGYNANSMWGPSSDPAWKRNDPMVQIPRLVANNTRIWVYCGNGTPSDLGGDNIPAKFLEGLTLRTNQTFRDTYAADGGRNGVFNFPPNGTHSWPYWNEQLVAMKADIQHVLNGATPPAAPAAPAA
T2 sequence (I6X8D2 1451-1733 limits assumed): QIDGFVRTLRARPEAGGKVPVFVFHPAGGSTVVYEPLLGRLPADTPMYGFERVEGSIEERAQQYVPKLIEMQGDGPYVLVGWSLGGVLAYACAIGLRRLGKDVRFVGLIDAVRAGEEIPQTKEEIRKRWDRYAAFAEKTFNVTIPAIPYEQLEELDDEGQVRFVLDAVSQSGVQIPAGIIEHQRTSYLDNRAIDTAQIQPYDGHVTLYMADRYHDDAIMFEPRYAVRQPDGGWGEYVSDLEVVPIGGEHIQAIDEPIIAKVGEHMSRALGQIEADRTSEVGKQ
T1 sequence (O53581 whole entry): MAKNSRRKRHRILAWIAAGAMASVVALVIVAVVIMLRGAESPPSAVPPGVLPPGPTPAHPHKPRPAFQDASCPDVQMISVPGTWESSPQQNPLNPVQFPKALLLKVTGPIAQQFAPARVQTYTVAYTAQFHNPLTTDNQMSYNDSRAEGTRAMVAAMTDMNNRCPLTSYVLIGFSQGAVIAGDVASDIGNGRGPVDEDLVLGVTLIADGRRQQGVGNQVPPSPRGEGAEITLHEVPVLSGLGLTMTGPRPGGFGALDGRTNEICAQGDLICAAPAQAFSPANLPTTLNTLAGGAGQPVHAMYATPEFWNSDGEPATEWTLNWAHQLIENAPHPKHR

In the case of `CCCCCCCCCCCC(CC1OC(=O)C1CCCCCC)OC(=O)C(CC(C)C)NC=O` (single isomer, unassigned; ent1) [ent1-THL], the EC50 (Mtb Rv3802 [1]; [8]) is reported as 15900 ± 1000 nM and the “inhibition level of Rv3802” value (Mtb Rv3802 [2]; 100 µM) is reported as 85.1 ± 1.4%.
For `CCCCCCCCCCC[C@H](C[C@H]1OC(=O)[C@@H]1CCCCCC)OC(=O)[C@H](CC(C)C)NC=O` (single isomer, unassigned; ent2) [ent2-THL], the Pks13-TE activity remaining (Mtb Pks13-TE [3]; 100 μM inhibitor, 1 h preincubation, compared to uninhibited reactions) was ~ 30%, the EC50 (Mtb Rv3802 [1]; [8]) was 15900 ± 1100 nM and the “inhibition level of Rv3802” value (Mtb Rv3802 [2]) was 83.9 ± 0.6%.
With `CCCCCCCCCCCC(CC1OC(=O)C1CCCCCC)OC(=O)C(CC(C)C)NC=O` (single isomer, unassigned; ent3) [ent3-THL] the EC50 (Mtb Rv3802 [1]; [8]) was 16600 ± 900 nM and the “inhibition level of Rv3802” value (Mtb Rv3802 [2]; 100 µM) was 83.0 ± 2.9%.
In the case of `CCCCCCCCCCCC(CC1OC(=O)C1CCCCCC)OC(=O)C(CC(C)C)NC=O` (single isomer, unassigned; ent4) [ent4-THL], the EC50 (Mtb Rv3802 [1]; [8]) is reported as 62100 ± 4100 nM and the “inhibition level of Rv3802” value (Mtb Rv3802 [2]; 100 µM) is reported as 79.0 ± 1.7%.
In the case of `CCCCCCCCCCC[C@H](C[C@@H]1OC(=O)[C@H]1CCCCCC)OC(=O)[C@@H](CC(C)C)NC=O` [2′,5-epi-THL], the EC50 (Mtb Rv3802 [1]; [8]) is reported as 28.7 ± 3.1 nM and the “inhibition level of Rv3802” value (Mtb Rv3802 [2]) is reported as “completely inhibit”.
For `CCCCCCCCCCC[C@@H](C[C@@H]1OC(=O)[C@H]1CCCCCC)OC(=O)[C@@H](CC(C)C)NC=O` [2′-epi-THL], the “inhibition level of Ag85C” value (Mtb Ag85C [4]) was 35.8 ± 2.2%, the “fold lower binding affinity (KI) compared to THL” value (Mtb Ag85C [5]; Ag85C) was ~ 4.5 fold and the “fold lower kinact/KI value compared to THL” value (Mtb Ag85C [5]; Ag85C) was ~ 4 fold. The kinact/KI (Mtb Ag85C [5]; Ag85C, inhibitor 300 to 12.5 μM, 40 min progress curves) was 1.1 ± 0.3 × 10^−3 μM^−1 min^−1, the EC50 (Mtb Rv3802 [1]; [8]) was 9.2 ± 0.5 nM and the “inhibition level of Rv3802” value (Mtb Rv3802 [2]) was “completely inhibit”.
For `CCCCCCCCCCC[C@H](C[C@@H]1OC(=O)[C@H]1CCCCCC)OC(=O)[C@H](CC(C)C)NC=O` [5-epi-THL], the “inhibition level of Ag85C” value (Mtb Ag85C [4]) was 12.3 ± 2.6%, the EC50 (Mtb Rv3802 [1]; [8]) was 12.6 ± 1.2 nM and the “inhibition level of Rv3802” value (Mtb Rv3802 [2]) was “completely inhibit”.
For `CCCCCCCCCCC[C@@H](C[C@@H]1OC(=O)[C@H]1CCCCCC)OC(=O)[C@H](CC(C)C)NC=O` [THL, Tetrahydrolipstatin], the “minimum inhibitory concentration (MIC)” value (Mtb strain H37Rv) is listed as ~ 15 μM, the IC50 (Rv3802) is listed as “low micromolar” and the Ki (Rv3802; read-out: apparent KI) is listed as 5 nM. For the same molecule, the “retention of covalent coupling with THL, fold longer than Rv3802” value (Mtb Pks13-TE [6]; Pks13-TE versus Rv3802) was “at least 10 fold”, the “slowing of the rate of inactivation of Pks13-TE by presence of trehalose” value (Mtb Pks13-TE [6]; THL inhibition with versus without trehalose) was 48 ± 6.7% and the inhibition at 12.5 µM (Mtb Pks13-TE [6]; [9]) was 62.3 ± 5%. The inhibition at 25 µM (Mtb Pks13-TE [6]; [9]) was 61.8 ± 3.5%, the inhibition at 50 µM (Mtb Pks13-TE [6]; [9]) was 44.1 ± 3.5% and the inhibition at 12.5 µM (Mtb Pks13-TE [6]; [10]) was 15.2 ± 1.4%. It also gave an inhibition at 25 µM (Mtb Pks13-TE [6]; [10]) of 11.6 ± 0.4%, an inhibition at 50 µM (Mtb Pks13-TE [6]; [10]) of 16 ± 2.1% and an inhibition at 100 µM (Mtb Ag85C [4]; read-out: inhibition level of Ag85C) of 31.8 ± 5.9%. For the same molecule, the inhibition at 100 µM (Mtb Pks13-TE [3]; read-out: inhibition level of Pks13-TE) was 50 to 60%, the kinact/KI (Mtb Ag85C [5]) was 70 M⁻¹ s⁻¹ and the EC50 (Mtb Rv3802 [1]) was 16.2 ± 0.8 nM. The “inhibition level of Rv3802” value (Mtb Rv3802 [2]) was “completely inhibit”.
Work on “Mtb Pks13-TE (Mycobacterium tuberculosis H37Rv)” yielded a Km [7] of 56.6 ± 7.9 mM.

Source: article PMC6128263 (Biochemistry, 2018)
